Data published in ChEMBL document CHEMBL5550090, “Synthesis and biological evaluation of 1H-pyrrolo[3,2-g]isoquinolines” (Bioorg Med Chem, 2024).

How the values were obtained:
[1] = molecular target: Dual specificity protein kinase CLK1 (Mus musculus) (UniProt P22518); test: Inhibition of recombinant mouse CLK1 expressed in bacteria assessed as enzyme residual activity using GRSRSRSRSRSR as substrate at 10 uM incubated for 30 mins in presence of ATP by ADP-Glo kinase assay
[2] = molecular target: Dual specificity protein kinase CLK1 (Mus musculus) (UniProt P22518); test: Inhibition of recombinant mouse CLK1 expressed in bacteria assessed as enzyme residual activity using GRSRSRSRSRSR as substrate at 1 uM incubated for 30 mins in presence of ATP by ADP-Glo kinase assay
[3] = molecular target: Dual specificity tyrosine-phosphorylation-regulated kinase 1A (Rattus norvegicus) (UniProt Q63470); test: Inhibition of recombinant rat DYRK1A kinase domain (1 to 499 residues) expressed in bacteria assessed as enzyme residual activity using KKISGRLSPIMTEQ as substrate at 10 uM incubated for 30 mins in presence of ATP by ADP-Glo kinase assay
[4] = molecular target: Dual specificity tyrosine-phosphorylation-regulated kinase 1A (Rattus norvegicus) (UniProt Q63470); test: Inhibition of recombinant rat DYRK1A kinase domain (1 to 499 residues) expressed in bacteria assessed as enzyme residual activity using KKISGRLSPIMTEQ as substrate at 1 uM incubated for 30 mins in presence of ATP by ADP-Glo kinase assay
[5] = molecular target: T1, CDK9/cyclin T1 (Homo sapiens) (UniProt O60563+P50750); test: Inhibition of human recombinant CDK9/cyclin T expressed in baculovirus-infected Sf9 cells assessed as enzyme residual activity using YSPTSPSYSPTSPSYSPTSPSKKKK as substrate at 10 uM incubated for 30 mins in presence of ATP by ADP-Glo kinase assay
[6] = molecular target: T1, CDK9/cyclin T1 (Homo sapiens); test: Inhibition of human recombinant CDK9/cyclin T expressed in baculovirus-infected Sf9 cells assessed as enzyme residual activity using YSPTSPSYSPTSPSYSPTSPSKKKK as substrate at 1 uM incubated for 30 mins in presence of ATP by ADP-Glo kinase assay
[7] = molecular target: Glycogen synthase kinase-3 beta (Homo sapiens) (UniProt P49841); test: Inhibition of human recombinant GSK-3 beta expressed in baculovirus-infected Sf9 cells assessed as enzyme residual activity using YRRAAVPPSPSLSRHSSPHQSpEDEEE as substrate at 10 uM incubated for 30 mins in presence of ATP by ADP-Glo kinase assay
[8] = molecular target: Glycogen synthase kinase-3 beta (Homo sapiens) (UniProt P49841); test: Inhibition of human recombinant GSK-3 beta expressed in baculovirus-infected Sf9 cells assessed as enzyme residual activity using YRRAAVPPSPSLSRHSSPHQSpEDEEE as substrate at 1 uM incubated for 30 mins in presence of ATP by ADP-Glo kinase assay
[9] = molecular target: Casein kinase I isoform epsilon (Homo sapiens) (UniProt P49674); test: Inhibition of human recombinant CK1 epsilon expressed in baculovirus-infected Sf9 cells assessed as enzyme residual activity using RRKHAAIGSpAYSITA as substrate at 10 uM incubated for 30 mins in presence of ATP by ADP-Glo kinase assay
[10] = molecular target: Casein kinase I isoform epsilon (Homo sapiens) (UniProt P49674); test: Inhibition of human recombinant CK1 epsilon expressed in baculovirus-infected Sf9 cells assessed as enzyme residual activity using RRKHAAIGSpAYSITA as substrate at 1 uM incubated for 30 mins in presence of ATP by ADP-Glo kinase assay
[11] = molecular target: T2, Cyclin-dependent kinase 5/CDK5 activator 1 (Homo sapiens) (UniProt Q00535+Q15078); test: Inhibition of human recombinant CDK5/p25 expressed in bacteria assessed as enzyme residual activity using histone H1 as substrate at 10 uM incubated for 30 mins in presence of ATP by ADP-Glo kinase assay
[12] = molecular target: T2, Cyclin-dependent kinase 5/CDK5 activator 1 (Homo sapiens); test: Inhibition of human recombinant CDK5/p25 expressed in bacteria assessed as enzyme residual activity using histone H1 as substrate at 1 uM incubated for 30 mins in presence of ATP by ADP-Glo kinase assay
[13] = molecular target: T3, Serine/threonine-protein kinase pim-1 (Homo sapiens, UniProt P11309); test: Inhibition of human recombinant PIM-1 expressed in bacteria assessed as enzyme residual activity using histone H1 as substrate at 10 uM incubated for 30 mins in presence of ATP by ADP-Glo kinase assay
Target sequence in this assay (P11309 whole entry, looked up): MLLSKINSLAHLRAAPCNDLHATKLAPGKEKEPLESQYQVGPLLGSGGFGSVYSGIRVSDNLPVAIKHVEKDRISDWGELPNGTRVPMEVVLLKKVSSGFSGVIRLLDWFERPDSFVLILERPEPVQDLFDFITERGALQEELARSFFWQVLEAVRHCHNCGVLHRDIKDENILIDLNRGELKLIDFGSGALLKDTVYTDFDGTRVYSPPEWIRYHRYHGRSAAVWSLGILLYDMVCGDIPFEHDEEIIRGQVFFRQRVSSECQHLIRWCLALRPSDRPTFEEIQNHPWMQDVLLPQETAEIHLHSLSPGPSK

[14] = molecular target: T3, Serine/threonine-protein kinase pim-1; test: Inhibition of human recombinant PIM-1 expressed in bacteria assessed as enzyme residual activity using histone H1 as substrate at 1 uM incubated for 30 mins in presence of ATP by ADP-Glo kinase assay
Target sequence in this assay (P11309 whole entry, looked up): as above

U2OS [15] = test: Induction of cell cycle arrest in human U2OS cells assessed as proportion of cells at G1 phase at 2.5 uM incubated for 24 hrs by flow cytometry (reference value: 45%); type: functional
U2OS [16] = test: Induction of cell cycle arrest in human U2OS cells assessed as proportion of cells at S phase at 2.5 uM incubated for 24 hrs by flow cytometry (reference value: 39%); type: functional
U2OS [17] = test: Induction of cell cycle arrest in human U2OS cells assessed as proportion of cells at G2/M phase at 2.5 uM incubated for 24 hrs by flow cytometry (reference value: 16%); type: functional
U2OS [18] = test: Induction of cell cycle arrest in human U2OS cells assessed as proportion of cells at G1 phase at 5 uM incubated for 24 hrs by flow cytometry (reference value: 45%); type: functional
U2OS [19] = test: Induction of cell cycle arrest in human U2OS cells assessed as proportion of cells at S phase at 5 uM incubated for 24 hrs by flow cytometry (reference value: 39%); type: functional
U2OS [20] = test: Induction of cell cycle arrest in human U2OS cells assessed as proportion of cells at G2/M phase at 5 uM incubated for 24 hrs by flow cytometry (reference value: 16%); type: functional
TERT-RPE1 = test: cells; conditions: Homo sapiens, RPE-1, 48 h
Description: Cytotoxicity against human TERT-RPE1 cells assessed as reduction in cell viability incubated for 48 hrs by MTS assay

HBL-100 = test: cells; conditions: Homo sapiens, HBL-100, 48 h
Description: Antiproliferative activity against human HBL-100 cells assessed as reduction in cell viability incubated for 48 hrs by MTS assay

HCT-116 = test: cells; conditions: Homo sapiens, HCT-116, 48 h
Description: Antiproliferative activity against human HCT-116 cells assessed as reduction in cell viability incubated for 48 hrs by MTS assay

SH-SY5Y = test: cells; conditions: Homo sapiens, 48 h
Description: Antiproliferative activity against human SH-SY5Y cells assessed as reduction in cell viability incubated for 48 hrs by MTS assay

U2OS [21] = test: cells; conditions: Homo sapiens, 48 h
Description: Antiproliferative activity against human U2OS cells assessed as reduction in cell viability incubated for 48 hrs by MTS assay

[22] = molecular target: T4, Serine/threonine-protein kinase haspin (Homo sapiens, UniProt Q8TF76); test: Inhibition of recombinant human Haspin kinase domain (470 to 798 residues) expressed in bacteria using histone H3 (1 to 21) peptide as substrate incubated for 30 mins in presence of ATP by ADP-Glo kinase assay
T4 sequence (Q8TF76 whole entry): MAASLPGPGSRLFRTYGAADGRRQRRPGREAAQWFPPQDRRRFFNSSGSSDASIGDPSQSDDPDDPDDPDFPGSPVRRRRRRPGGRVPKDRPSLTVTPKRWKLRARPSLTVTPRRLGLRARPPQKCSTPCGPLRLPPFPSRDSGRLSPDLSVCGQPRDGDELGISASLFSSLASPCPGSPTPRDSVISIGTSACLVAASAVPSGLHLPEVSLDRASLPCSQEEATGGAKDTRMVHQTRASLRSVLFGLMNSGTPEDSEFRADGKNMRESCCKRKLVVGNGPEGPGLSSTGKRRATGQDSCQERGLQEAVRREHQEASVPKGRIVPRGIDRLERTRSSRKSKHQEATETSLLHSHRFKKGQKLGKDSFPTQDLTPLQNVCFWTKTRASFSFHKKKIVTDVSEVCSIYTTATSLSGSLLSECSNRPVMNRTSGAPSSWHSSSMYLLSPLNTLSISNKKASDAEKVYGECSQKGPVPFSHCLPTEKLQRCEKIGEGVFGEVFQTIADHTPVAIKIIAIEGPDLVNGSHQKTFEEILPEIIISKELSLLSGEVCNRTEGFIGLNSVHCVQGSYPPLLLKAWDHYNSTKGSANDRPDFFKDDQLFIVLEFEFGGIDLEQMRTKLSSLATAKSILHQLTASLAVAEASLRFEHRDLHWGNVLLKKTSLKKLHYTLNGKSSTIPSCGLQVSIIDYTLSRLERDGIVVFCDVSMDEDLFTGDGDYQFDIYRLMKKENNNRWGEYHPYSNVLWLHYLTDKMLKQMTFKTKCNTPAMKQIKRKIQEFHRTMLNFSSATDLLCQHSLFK

[23] = molecular target: Dual specificity protein kinase CLK1 (Mus musculus, UniProt P22518); test: Inhibition of recombinant mouse CLK1 expressed in bacteria using GRSRSRSRSRSR as substrate incubated for 30 mins in presence of ATP by ADP-Glo kinase assay
[24] = molecular target: Dual specificity tyrosine-phosphorylation-regulated kinase 1A (Rattus norvegicus, UniProt Q63470); test: Inhibition of recombinant rat DYRK1A kinase domain (1 to 499 residues) expressed in bacteria using KKISGRLSPIMTEQ as substrate incubated for 30 mins in presence of ATP by ADP-Glo kinase assay
[25] = molecular target: T3, Serine/threonine-protein kinase pim-1; test: Inhibition of human recombinant PIM-1 expressed in bacteria using histone H1 as substrate incubated for 30 mins in presence of ATP by ADP-Glo kinase assay
Target sequence in this assay (P11309 whole entry): as the sequence (P11309 whole entry, looked up) above

U2OS [26] = test: Induction of cell cycle arrest in human U2OS cells assessed as proportion of cells at G1 phase at 0.5 uM incubated for 24 hrs by flow cytometry (reference value: 45%); type: functional
U2OS [27] = test: Induction of cell cycle arrest in human U2OS cells assessed as proportion of cells at S phase at 0.5 uM incubated for 24 hrs by flow cytometry (reference value: 39%); type: functional
U2OS [28] = test: Induction of cell cycle arrest in human U2OS cells assessed as proportion of cells at G2/M phase at 0.5 uM incubated for 24 hrs by flow cytometry (reference value: 16%); type: functional

Dual specificity protein kinase CLK1 (Mus musculus), sequence (P22518 whole entry, looked up, the tested form may be a part): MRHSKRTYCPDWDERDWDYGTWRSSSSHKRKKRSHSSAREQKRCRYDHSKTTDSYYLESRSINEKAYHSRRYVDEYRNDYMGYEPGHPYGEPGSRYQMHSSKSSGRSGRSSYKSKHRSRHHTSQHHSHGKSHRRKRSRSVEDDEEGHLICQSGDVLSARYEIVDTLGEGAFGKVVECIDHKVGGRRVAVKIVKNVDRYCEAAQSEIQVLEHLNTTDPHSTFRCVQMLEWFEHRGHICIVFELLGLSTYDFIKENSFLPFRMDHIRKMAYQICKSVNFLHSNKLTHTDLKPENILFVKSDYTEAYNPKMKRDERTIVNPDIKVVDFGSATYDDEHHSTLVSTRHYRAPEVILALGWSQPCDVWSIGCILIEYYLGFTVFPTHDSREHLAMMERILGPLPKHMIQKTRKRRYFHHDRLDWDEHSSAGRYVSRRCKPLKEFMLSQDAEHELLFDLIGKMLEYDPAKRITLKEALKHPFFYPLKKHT
Glycogen synthase kinase-3 beta (Homo sapiens), sequence (P49841 whole entry, looked up, canonical isoform): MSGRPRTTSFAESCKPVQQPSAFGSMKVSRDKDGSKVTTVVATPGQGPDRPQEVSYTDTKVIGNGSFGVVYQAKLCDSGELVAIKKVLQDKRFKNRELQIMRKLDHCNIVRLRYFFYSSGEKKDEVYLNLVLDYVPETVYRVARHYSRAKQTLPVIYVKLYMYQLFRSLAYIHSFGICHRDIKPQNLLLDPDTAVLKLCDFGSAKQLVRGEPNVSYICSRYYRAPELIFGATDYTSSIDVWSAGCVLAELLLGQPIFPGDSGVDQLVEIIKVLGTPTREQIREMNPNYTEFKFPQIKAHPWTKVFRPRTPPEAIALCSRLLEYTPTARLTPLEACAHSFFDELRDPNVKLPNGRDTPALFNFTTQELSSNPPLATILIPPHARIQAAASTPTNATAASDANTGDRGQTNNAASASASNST
Casein kinase I isoform epsilon (Homo sapiens), sequence (P49674 whole entry, looked up, canonical isoform): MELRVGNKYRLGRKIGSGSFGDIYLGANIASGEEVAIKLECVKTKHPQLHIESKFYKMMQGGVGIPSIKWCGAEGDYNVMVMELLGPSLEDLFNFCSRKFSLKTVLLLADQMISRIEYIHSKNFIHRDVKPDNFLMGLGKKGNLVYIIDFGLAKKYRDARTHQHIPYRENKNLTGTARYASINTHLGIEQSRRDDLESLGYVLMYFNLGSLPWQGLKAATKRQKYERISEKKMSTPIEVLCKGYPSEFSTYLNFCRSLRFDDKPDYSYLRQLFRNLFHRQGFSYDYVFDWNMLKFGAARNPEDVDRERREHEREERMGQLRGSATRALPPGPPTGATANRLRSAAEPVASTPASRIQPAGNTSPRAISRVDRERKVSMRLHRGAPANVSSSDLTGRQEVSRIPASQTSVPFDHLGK
T2 sequence (Q00535 whole entry): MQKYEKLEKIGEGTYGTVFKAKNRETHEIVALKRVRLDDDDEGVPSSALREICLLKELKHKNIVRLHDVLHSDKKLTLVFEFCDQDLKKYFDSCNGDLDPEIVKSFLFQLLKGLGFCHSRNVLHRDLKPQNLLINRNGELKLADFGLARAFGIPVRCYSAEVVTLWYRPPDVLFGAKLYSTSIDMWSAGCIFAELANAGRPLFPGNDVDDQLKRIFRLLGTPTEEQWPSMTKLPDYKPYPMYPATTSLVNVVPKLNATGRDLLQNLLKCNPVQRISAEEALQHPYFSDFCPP
T2 sequence (Q15078 99-307 partner limits assumed): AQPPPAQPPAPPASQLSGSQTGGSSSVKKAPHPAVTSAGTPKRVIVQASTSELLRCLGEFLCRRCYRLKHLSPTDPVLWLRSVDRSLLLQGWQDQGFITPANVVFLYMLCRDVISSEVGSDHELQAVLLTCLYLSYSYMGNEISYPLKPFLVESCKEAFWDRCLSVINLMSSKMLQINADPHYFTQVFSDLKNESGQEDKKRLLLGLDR
Dual specificity protein kinase CLK1, sequence (P22518 whole entry, the tested form may be a part): as the sequence (P22518 whole entry, looked up, the tested form may be a part) above

Structure (SMILES) | Activity [1] [%] | Activity [2] [%] | Activity [3] [%] | Activity [4] [%] | Activity [5] [%] | Activity [6] [%] | Activity [7] [%] | Activity [8] [%] | Activity [9] [%] | Activity [10] [%] | Activity [11] [%] | Activity [12] [%] | Activity [13] [%] | Activity [14] [%] | Activity (U2OS [15]) [%] | Activity (U2OS [16]) [%] | Activity (U2OS [17]) [%] | Activity (U2OS [18]) [%] | Activity (U2OS [19]) [%] | Activity (U2OS [20]) [%] | also measured
CCn1ncc2cc3cnccc3c(N)c21 | 8 | 34 | 6 | 23 | 50 | 80 | 42 | 82 | 48 | 84 | 28 | 65 | 60 | 91 | 44 | 40 | 16 | 32 | 43 | 25 | EC50 (TERT-RPE1): 0.3 µM; EC50 (HBL-100): 7.3 µM; EC50 (HCT-116): 1.2 µM; EC50 (SH-SY5Y): 1.2 µM; EC50 (U2OS [21]): 2.7 µM
c1cc(-c2c[nH]c3cc4cnccc4cc23)ccn1 | 17 | 46 | 11 | 46 | 38 | 78 | 54 | 92 | 25 | 61 | 10 | 79 | 9 | 49 | 48 | 39 | 13 | 37 | 45 | 18 | IC50 [22]: 0.076 µM; IC50 [23]: 0.693 µM; IC50 [24]: 0.513 µM; IC50 [25]: 0.479 µM; EC50 (TERT-RPE1): 7.8 µM; EC50 (HBL-100): 24.1 µM; EC50 (HCT-116): 7.3 µM; EC50 (SH-SY5Y): 20 µM; EC50 (U2OS [21]): 11.2 µM
CCCNc1ccc2ncc(-c3ccc4[nH]ncc4c3)n2n1 |  |  |  |  |  |  |  |  |  |  |  |  |  |  |  |  |  |  |  |  | Activity (U2OS [26]): 38%; Activity (U2OS [27]): 44%; Activity (U2OS [28]): 18%
